Measured values reported in patent US7507727B2, “Substituted quinobenzoxazine analogs and methods of using thereof” (Cylene Pharmaceuticals, Inc., priority 2003, dated 2009).
Entries after “also recorded” stand apart in the source; their conditions may differ. Like-named read-outs stand apart in the source and are kept apart here.

Columns and labels:
[1] = Pharmacokinetic study in mice, intravenous; type: in vivo; settings: 25 mg/kg intravenous
Text: Pharmacokinetic studies for evaluating pharmacokinetic properties of compounds are designed as follows. Male animals (mouse, Balb/c or rat, SD) aged five to six weeks and/or rats weighing more than 200 grams will be used for testing. One group will be untreated and samples taken to be used as a base line. The other three groups will be treated and administered a single dose of compounds by intravenous injection.
Dosing Procedure. Compounds will be administered via IV (lateral tail vein), IP or PO. Animals will be dosed in a systematic order that distributes the time of dosing similarly across all groups. For IP and PO dosing, animals will be manually restrained. For IV bolus dosing or short term IV infusion (one minute), animals will be mechanically restrained but not sedated. Disposable sterile syringes will be used for each animal/dose.
Approximately 0.5 ml of blood will be collected from the naive animals via cardiac puncture prior to the first dose. Terminal blood samples (0.5 ml) will be collected via cardiac puncture from two animals per group per time point according to the above chart. All samples will be placed in tubes containing lithium heparin as anticoagulant and mixed immediately by inverting. They will be centrifuged and the plasma flash frozen in liquid nitrogen, stored at −70° C. or greater and analyzed for drug levels.
A pharmacokinetic study to determine the time course of CX-3543 disposition was conducted in mice following intravenous administered of 25 mg/kg of CX-3543. Regular sampling was undertaken throughout a 24 hour period after IV dose administration, and the key derived pharmacokinetic parameters were derived. FIG. 11 provides the graphical representation of the pharmacokinetic profile of CX-3543 from which key parameters (Table 11) were obtained.
In FIG. 11, Cmax is the maximum CX-3543 plasma concentration attained (expressed in ng/ml); AUC0-inf is the area under the CX-3543 plasma concentration versus time curve, extrapolated from time zero to infinity (expressed in ng.hr/ml); T1/2 is the terminal half life of CX-3543 (expressed in hr); Vdss is the volume of distribution of CX-3543 at steady state (expressed in L/kg); and ClS is the systemic clearance of CX-3543 (expressed in L/hr/kg).

PC-3 xenograft = assay: PC-3 prostate cancer xenograft model; type: in vivo, mice; settings: 5, 10 and 15 mg/kg i.p. q.o.d., FIG. 9
Protocol: (§1) CX-3543 was tested against a number of cancer xenograft models to determine the in vivo efficacy. HCT-116 and PC-3 tumor-bearing nu/nu or MiaPaCa tumor-bearing SCID mice were administered reference and testing compounds on schedules indicated in figure legends. Tumor measurements were taken with calipers every other day or twice a week starting from the first day of dosing and body weights were measured at the same time points. Tumor volumes were calculated from the standard formula, W^2×L/2. c-MYC mRNA expression was measured with QPCR from all tumor samples following the final dose. 18S ribosomal RNA was used as a housekeeper and also quantified with QPCR.

c-MYC mRNA = c-MYC mRNA expression in tumor samples by QPCR; type: in vivo, mice; settings: HCT-116
Protocol: as §1

[2] = Pharmacokinetic/toxicokinetic evaluation in rats; type: in vivo; settings: for Cmax / AUC(0-t) / half-life / AUC(0-inf): rat, plasma
Protocol: The study was conducted using three (3) test and one (1) control article groups. The high and low test article groups and the control group consisted of 28 animals each and were used to assess tolerance. The medium test article group consisted of 64 animals of which 28 animals were used to assess tolerance and 36 animals were used to determine the level of test article in the blood at various time points after the first and fifth doses in the PK/TK portion of the study. The control article was the solution (5% dextrose in water; D5W) used to dilute the test article prior to administration and was administered at the same volume as the high dose test article group. […] Test and control articles were administered by intravenous (IV) injection into a tail vein over one minute on five consecutive days.
Blood samples for test article blood level analysis were taken as follows. Approximately 0.3-0.5 mL of blood was taken from three male and three female rats under anesthesia at each sample time point of pre-dose and at the end of injection (Time 0) and at approximately 0.08, 0.25, 0.5, 1, 2, 4, 8, 12, and 24 hours from the end of the injection after the first and fifth doses. Animals used to assess tolerance were terminated one day (for the primary group) or 15 days (for the recovery group) after the last dose. At termination of the tolerance test animals, blood for hematology and clinical chemistry analysis was drawn prior to euthanasia and following euthanasia. A necropsy was performed to include collection of major organs for microscopic evaluation. The animals used for the pk/tk blood sampling only to determine the level of test article were euthanized after the final blood sample was collected without any further sampling or observations.
PK/TK: Blood samples for test article blood level analysis were taken. Utilizing 18 male and 18 female medium dose animals, approximately 0.3-0.5 mL of blood was taken from three male and three female rats under anesthesia at each sampling time point of pre-dose and at the end of injection (Time 0) and at approximately 0.08, 0.25, 0.5, 1, 2, 4, 8, 12, and 24 hours from the end of the injection after the first and fifth dose. Blood sampling was via retro-orbital bleeding or cardiac puncture bleeding for an animal's terminal sample. Plasma (lithium heparin anticoagulant) samples were prepared and analyzed. General procedures for chemical pathology, necropsy, and histopathology, and statistical methods, for example as described in Example 65, were followed.

[3] = male, Balb/c, mouse, plasma, iv, 25 mg/kg

SMILES: CN1CCCC1CCNC(=O)c1cn2c3c(c(N4CCC(c5cnccn5)C4)c(F)cc3c1=O)Oc1cc3ccccc3cc1-2 (centres unmarked) [CX-3543]
- ClS [1]: 20.5 mL/min/kg
- Vd ([1]; male, Balb/c, mouse, plasma, read-out: Vdss): 7.26 L/kg
- AUC(0-inf) [1, 3]: ~20300 ng·h/mL
- Cmax [1, 3]: ~5350 ng/mL
- half-life [1, 3]: ~4.6 h
- tumor growth inhibition (PC-3 xenograft): inhibits tumor growth; also recorded: significant tumor growth inhibition
- lowering of c-Myc mRNA expression relative to control (18s rRNA) in tumor tissue (c-MYC mRNA; 20 mg/kg group): 85%
- c-Myc mRNA expression relative to control (18s rRNA) in tumor tissue (c-MYC mRNA; 10, 15 and 20 mg/kg): dose-dependent lowering
- Dose 5 to Dose 1 ratio for AUC(0-24) ([2]; female): 1.5
- Cmax ([2]; female, iv, 7.6 mg/kg, Dose 1): 598 ng/mL
- Cmax ([2]; female, iv, 7.6 mg/kg, Dose 5): 1050 ng/mL
- AUC(0-t) ([2]; female, iv, 7.6 mg/kg, female, Dose 1, read-out: AUC(0-24)): 784 ng·h/mL
- AUC(0-t) ([2]; female, iv, 7.6 mg/kg, female, Dose 5, read-out: AUC(0-24)): 1200 ng·h/mL
- half-life ([2]; female, iv, 7.6 mg/kg, female, Dose 5, read-out: terminal half-life (converted)): 4.8 h
- half-life ([2]; female, iv, 7.6 mg/kg, female, IV, Dose 1 (medium dose group, 7.6 mg/kg), read-out: terminal half-life (converted)): 6.6 h
- half-life ([2]; female, iv, […], female, Dose 1, […] IV, read-out: T1/2 (converted)): 6.6 h
- half-life ([2]; female, iv, […], female, Dose 5, […] IV once daily, read-out: T1/2 (converted)): 4.8 h
- Dose 5 to Dose 1 ratio for AUC(0-24) ([2]; male): 1.3
- Accumulation Ratio ([2]; male, Dose 5 to Dose 1 AUC(0-24), 7.1 mg/kg IV): 1.3
- Cmax ([2]; male, iv, 7.1 mg/kg, Dose 1, 7.1 mg/kg IV): 514 ng/mL
- Cmax ([2]; male, iv, 7.1 mg/kg, Dose 5, 7.1 mg/kg IV once daily): 485 ng/mL
- AUC(0-t) ([2]; male, iv, 7.1 mg/kg, male, Dose 1, 7.1 mg/kg IV, read-out: AUC(0-24)): 779 ng·h/mL
- half-life ([2]; male, iv, 7.1 mg/kg, male, Dose 1, 7.1 mg/kg IV, read-out: T1/2 (converted)): 6.8 h
- AUC(0-t) ([2]; male, iv, 7.1 mg/kg, male, Dose 5, 7.1 mg/kg IV once daily, read-out: AUC(0-24)): 1010 ng·h/mL
- half-life ([2]; male, iv, 7.1 mg/kg, male, Dose 5, 7.1 mg/kg IV once daily, read-out: T1/2 (converted)): 8.8 h
- Cmax ([2]; male, iv, 7.6 mg/kg, Dose 1): 514 ng/mL
- Cmax ([2]; male, iv, 7.6 mg/kg, Dose 5): 485 ng/mL
- AUC(0-t) ([2]; male, iv, 7.6 mg/kg, male, Dose 1, read-out: AUC(0-24)): 779 ng·h/mL
- AUC(0-t) ([2]; male, iv, 7.6 mg/kg, male, Dose 5, read-out: AUC(0-24)): 1010 ng·h/mL
- half-life ([2]; male, iv, 7.6 mg/kg, male, Dose 5, read-out: terminal half-life (converted)): 8.8 h
- half-life ([2]; male, iv, 7.6 mg/kg, male, IV, Dose 1 (medium dose group, 7.6 mg/kg), read-out: terminal half-life (converted)): 6.8 h
- AUC(0-inf) ([2]; female, Dose 1, 7.2 mg/kg IV): 861 ng·h/mL
- AUC(0-inf) ([2]; iv, 7.6 mg/kg, female, Dose 1): 861 ng·h/mL
- AUC(0-inf) ([2]; iv, 7.6 mg/kg, male, Dose 1): 833 ng·h/mL
- AUC(0-inf) ([2]; male, Dose 1, 7.1 mg/kg IV): 833 ng·h/mL
